In ChEMBL document CHEMBL1201862, “PubChem BioAssay data set” (2004):
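How tested: cells in 96-well plates exposed to compound for 48 hours at five concentrations. The concentration for 50% growth inhibition is given as GI50.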 The source made the active and inactive calls. Rule as the data show it: active = GI50 up to about 1.1 µM and inactive = higher.

How the values were obtained:
Test in all cases: inhibition of tumour cell growth, NCI panel, 48 h
MDA-MB-231 = tested on: MDA-MB-231
MCF7 = tested on: MCF7
PC-3 = tested on: PC-3
Hs-578T = tested on: Hs-578T
MDA-N = tested on: MDA-N
RXF 393 = tested on: RXF 393
MDA-MB-435 = tested on: MDA-MB-435
NCI/ADR-RES = tested on: NCI/ADR-RES
T47D = tested on: T47D
DU-145 = tested on: DU-145
SNB-75 = tested on: SNB-75
RPMI-8226 = tested on: RPMI-8226
SR = tested on: SR
KM12 = tested on: KM12
M14 = tested on: M14
EKVX = tested on: EKVX
OVCAR-5 = tested on: OVCAR-5
NCI-H23 = tested on: NCI-H23
ACHN = tested on: ACHN
OVCAR-4 = tested on: OVCAR-4
OVCAR-8 = tested on: OVCAR-8
HCC 2998 = tested on: HCC 2998
SK-MEL-5 = tested on: SK-MEL-5
SK-MEL-28 = tested on: SK-MEL-28
NCI-H460 = tested on: NCI-H460
UACC-62 = tested on: UACC-62
U-251 = tested on: U-251
TK-10 = tested on: TK-10
HCT-116 = tested on: HCT-116
UO-31 = tested on: UO-31
UACC-257 = tested on: UACC-257
SN12C = tested on: SN12C
OVCAR-3 = tested on: OVCAR-3
A549 = tested on: A549
SK-MEL-2 = tested on: SK-MEL-2
786-0 = tested on: 786-0
SF-295 = tested on: SF-295
SK-OV-3 = tested on: SK-OV-3
HT-29 = tested on: HT-29
HCT-15 = tested on: HCT-15
SW-620 = tested on: SW-620
IGROV-1 = tested on: IGROV-1
COLO 205 = tested on: COLO 205
HOP-62 = tested on: HOP-62
SF-268 = tested on: SF-268
NCI-H226 = tested on: NCI-H226
SNB-19 = tested on: SNB-19
A498 = tested on: A498
SF-539 = tested on: SF-539
CCRF-CEM = tested on: CCRF-CEM
HOP-92 = tested on: HOP-92
Malme-3M = tested on: Malme-3M
NCI-H522 = tested on: NCI-H522
MOLT-4 = tested on: MOLT-4
LOX IMVI = tested on: LOX IMVI
HL-60 = tested on: HL-60

## COc1ccc2c(c[n+](C)c3c4cc5c(cc4ccc23)OCO5)c1OC
MDA-MB-231
  GI50: > 100 µM (inactive)
MCF7
  GI50: 9.55 µM (inactive)
PC-3
  GI50: 41.7 µM (inactive)
Hs-578T
  GI50: 80.4 µM (inactive)
MDA-N
  GI50: 16.7 µM (inactive)
RXF 393
  GI50: > 100 µM (inactive)
MDA-MB-435
  GI50: 19.3 µM (inactive)
NCI/ADR-RES
  GI50: 34.8 µM (inactive)
T47D
  GI50: > 100 µM (inactive)
DU-145
  GI50: > 100 µM (inactive)

## CCCCCCCCCCCCCCCCCCOC[C@H](COP(=O)(O)O[C@H]1[C@H](O)[C@@H](O)[C@H](O)C[C@H]1O)OC
SNB-75
  GI50: 13 µM (inactive)
RPMI-8226
  GI50: 11.8 µM (inactive)
SR
  GI50: 12.1 µM (inactive)

## O=C(Cc1ccccc1)NN1C(=O)/C(=C\c2cccc(O)c2)S/C1=N\c1ccccc1
KM12
  GI50: > 100 µM (inactive)
M14
  GI50: > 100 µM (inactive)
MDA-MB-231
  GI50: 45.8 µM (inactive)
SNB-75
  GI50: > 100 µM (inactive)
EKVX
  GI50: > 100 µM (inactive)
OVCAR-5
  GI50: > 100 µM (inactive)
MCF7
  GI50: > 100 µM (inactive)
NCI-H23
  GI50: > 100 µM (inactive)
Hs-578T
  GI50: > 100 µM (inactive)
ACHN
  GI50: > 100 µM (inactive)
OVCAR-4
  GI50: > 100 µM (inactive)
MDA-N
  GI50: > 100 µM (inactive)
RXF 393
  GI50: > 100 µM (inactive)
OVCAR-8
  GI50: > 100 µM (inactive)
HCC 2998
  GI50: > 100 µM (inactive)
SK-MEL-5
  GI50: > 100 µM (inactive)
MDA-MB-435
  GI50: > 100 µM (inactive)
SK-MEL-28
  GI50: > 100 µM (inactive)
NCI-H460
  GI50: > 100 µM (inactive)
NCI/ADR-RES
  GI50: > 100 µM (inactive)
UACC-62
  GI50: > 100 µM (inactive)
U-251
  GI50: > 100 µM (inactive)
TK-10
  GI50: > 100 µM (inactive)
HCT-116
  GI50: > 100 µM (inactive)
UO-31
  GI50: 55.8 µM (inactive)
UACC-257
  GI50: > 100 µM (inactive)
SN12C
  GI50: > 100 µM (inactive)
OVCAR-3
  GI50: 83.4 µM (inactive)
T47D
  GI50: 57.3 µM (inactive)
A549
  GI50: > 100 µM (inactive)
SK-MEL-2
  GI50: > 100 µM (inactive)
786-0
  GI50: > 100 µM (inactive)
SF-295
  GI50: > 100 µM (inactive)
SK-OV-3
  GI50: > 100 µM (inactive)
HT-29
  GI50: > 100 µM (inactive)
DU-145
  GI50: > 100 µM (inactive)
HCT-15
  GI50: > 100 µM
SW-620
  GI50: > 100 µM (inactive)
IGROV-1
  GI50: > 100 µM (inactive)
COLO 205
  GI50: > 100 µM (inactive)
HOP-62
  GI50: > 100 µM (inactive)
SF-268
  GI50: > 100 µM (inactive)
NCI-H226
  GI50: > 100 µM (inactive)
SNB-19
  GI50: > 100 µM (inactive)
A498
  GI50: > 100 µM (inactive)
SF-539
  GI50: > 100 µM (inactive)

## N=C(N)SCCc1ccccn1
KM12
  GI50: > 100 µM (inactive)
M14
  GI50: > 100 µM (inactive)
EKVX
  GI50: > 100 µM (inactive)
OVCAR-5
  GI50: > 100 µM (inactive)
CCRF-CEM
  GI50: > 100 µM (inactive)
ACHN
  GI50: > 100 µM (inactive)
OVCAR-4
  GI50: > 100 µM (inactive)
RXF 393
  GI50: > 100 µM (inactive)
HOP-92
  GI50: > 100 µM (inactive)
OVCAR-8
  GI50: > 100 µM (inactive)
SK-MEL-5
  GI50: > 100 µM (inactive)
SK-MEL-28
  GI50: > 100 µM (inactive)
NCI-H460
  GI50: > 100 µM (inactive)
UACC-62
  GI50: > 100 µM (inactive)
U-251
  GI50: > 100 µM (inactive)
HCT-116
  GI50: > 100 µM (inactive)
UO-31
  GI50: > 100 µM (inactive)
Malme-3M
  GI50: > 100 µM (inactive)
SN12C
  GI50: > 100 µM (inactive)
NCI-H522
  GI50: > 100 µM (inactive)
OVCAR-3
  GI50: > 100 µM (inactive)
T47D
  GI50: > 100 µM (inactive)
RPMI-8226
  GI50: > 100 µM (inactive)
MOLT-4
  GI50: > 100 µM (inactive)
A549
  GI50: > 100 µM (inactive)
SK-MEL-2
  GI50: > 100 µM (inactive)
786-0
  GI50: > 100 µM (inactive)
LOX IMVI
  GI50: > 100 µM (inactive)
SK-OV-3
  GI50: > 100 µM (inactive)
HCT-15
  GI50: > 100 µM
SW-620
  GI50: > 100 µM (inactive)
IGROV-1
  GI50: > 100 µM (inactive)
COLO 205
  GI50: > 100 µM (inactive)
HL-60
  GI50: > 100 µM (inactive)
HOP-62
  GI50: > 100 µM (inactive)
SF-268
  GI50: > 100 µM (inactive)
NCI-H226
  GI50: > 100 µM (inactive)
SNB-19
  GI50: > 100 µM (inactive)
SF-539
  GI50: > 100 µM (inactive)
